The record followed here is patent US20230339939A1 (Bayer Aktiengesellschaft, priority 2020, published 2023).

Experiment [1] addresses T1, CSNK1A1 (Homo sapiens (Human), UniProt P48729). Description: CSNK1A1 Assay 2 (ADP-Glo, 1 μM ATP, substrate biotin-Ahx-KRRRAL-pS-VASLPGL). It is filed as biochemical. Particulars: median, read-out: CSNK1A1 Assay 2 IC50 [mol/l] (median). The protocol: CSNK1A1-inhibitory activity of compounds of the present invention in presence of 1 μM adenosine-tri-phosphate (ATP) was quantified employing the CSNK1A1 assay as described in the following paragraphs. In essence, the enzyme activity is measured by quantification of the adenosine-di-phosphate (ADP), which is generated as a co-product of the enzyme reaction, via the “ADP-Glo™ Kinase Assay” kit from the company Promega. This detection system works as follows: In a first step the ATP not consumed in the kinase reaction is quantitatively converted to cAMP employing an adenylate cyclase (“ADP-Glo-reagent”), then the adenylate cyclase is stopped and the ADP generated in the kinase reaction converted to ATP which generates in a luciferase-based reaction a glow-luminescence signal (“Kinase Detection Reagent”).
(§1) Recombinant fusion protein of N-terminal Glutathion-S-Transferase (GST) and full-length human CSNK1A1, expressed by baculovirus infected insect cells and purified via Glutathion affinity chromatography, was purchased from Life Technologies (product no. PV4174) and used as enzyme. As substrate for the kinase reaction the biotinylated peptide biotin-Ahx-KRRRAL-pS-VASLPGL (C-terminus in amide form) was used which can be purchased e.g. from the company Biosyntan (Berlin-Buch, Germany).
For the assay 50 nl of a 100 fold concentrated solution of the test compound in DMSO was pipetted into a white 1536-well microtiter plate (Greiner Bio-One, Frickenhausen, Germany), 2 μL of a solution of CSNK1A1 in aqueous assay buffer [50 mM HEPES pH 7.5, 10% (v/v) glycerol, 10 mM MgCl2, 50 mM NaCl, 1 mM dithiothreitol, 0.01% (w/v) bovine serum albumin, 0.01% (v/v) Triton X-100] were added and the mixture was incubated for 15 min at 22° C. to allow pre-binding of the test compounds to the enzyme before the start of the kinase reaction. […] The concentration of CSNK1A1 was adjusted depending of the activity of the enzyme lot and was chosen appropriate to have the assay in the linear range, a typical concentrations are about 0.0375 ng/μL. The reaction was stopped by the addition of 2.5 μL of “ADP-Glo-reagent” (1:1.5 fold diluted with water) and the resulting mixture was incubated at 22° C. for 1 h to convert the ATP not consumed in the kinase reaction completely […]. Subsequently 2.5 μL of the “kinase detection reagent” (1.2 fold more concentrated than recommended by the producer) were added, the resulting mixture was incubated at 22° C. for 1 h and then the luminescence measured with a suitable measurement instrument (e.g. Viewlux™ from Perkin-Elmer). The amount of emitted light was taken as a measure for the amount of ADP generated and thereby for the activity of the CSNK1A1.
(In general: ADP-Glo first removes unused ATP, then detects ADP through luciferase.)

For experiment [2], the target named is T1, CSNK1A1. Put plainly: CSNK1A1 High ATP Assay (ADP-Glo, 1 mM ATP). It is filed as biochemical. To be noted: median, read-out: CSNK1A1 high ATP assay IC50 [mol/l] (median). On the procedure: CSNK1A1-inhibitory activity of compounds of the present invention in presence of 1 mM adenosine-tri-phosphate (ATP) was quantified employing the CSNK1A1-high-ATP-assay as described in the following paragraphs. In essence, the enzyme activity is measured by quantification of the adenosine-di-phosphate (ADP), which is generated as a co-product of the enzyme reaction, via the “ADP-Glo™ Kinase Assay” kit from the company Promega. This detection system works as follows: In a first step the ATP not consumed in the kinase reaction is quantitatively converted to cAMP employing an adenylate cyclase (“ADP-Glo-reagent”), then the adenylate cyclase is stopped and the ADP generated in the kinase reaction converted to ATP which generates in a luciferase-based reaction a glow-luminescence signal (“Kinase Detection Reagent”).
as §1
For the assay 50 nl of a 100 fold concentrated solution of the test compound in DMSO was pipetted into a white low volume 384-well microtiter plate (Greiner Bio-One, Frickenhausen, Germany), 2 μL of a solution of CSNK1A1 in aqueous assay buffer [50 mM HEPES pH 7.5, 10% (v/v) glycerol, 10 mM MgCl2, 50 mM NaCl, 1 mM dithiothreitol, 0.01% (w/v) bovine serum albumin, 0.01% (v/v) Triton X-100] were added and the mixture was incubated for 15 min at 22° C. to allow pre-binding of the test compounds to the enzyme before the start of the kinase reaction. […] The concentration of CSNK1A1 was adjusted depending of the activity of the enzyme lot and was chosen appropriate to have the assay in the linear range, a typical concentration is about 0.4 ng/μL. The reaction was stopped by the addition of 2.5 μL of “ADP-Glo-reagent” (1:1.5 fold diluted with water) and the resulting mixture was incubated at 22° C. for 1 h to convert the ATP not consumed in the kinase reaction completely […]. Subsequently 2.5 μL of the “kinase detection reagent” (1.2 fold more concentrated than recommended by the producer) were added, the resulting mixture was incubated at 22° C. for 1 h and then the luminescence measured with a suitable measurement instrument (e.g. Viewlux™ from Perkin-Elmer). The amount of emitted light was taken as a measure for the amount of ADP generated and thereby for the activity of the CSNK1A1.

SMILES strings stand for the structures.

T1 sequence (P48729 whole entry): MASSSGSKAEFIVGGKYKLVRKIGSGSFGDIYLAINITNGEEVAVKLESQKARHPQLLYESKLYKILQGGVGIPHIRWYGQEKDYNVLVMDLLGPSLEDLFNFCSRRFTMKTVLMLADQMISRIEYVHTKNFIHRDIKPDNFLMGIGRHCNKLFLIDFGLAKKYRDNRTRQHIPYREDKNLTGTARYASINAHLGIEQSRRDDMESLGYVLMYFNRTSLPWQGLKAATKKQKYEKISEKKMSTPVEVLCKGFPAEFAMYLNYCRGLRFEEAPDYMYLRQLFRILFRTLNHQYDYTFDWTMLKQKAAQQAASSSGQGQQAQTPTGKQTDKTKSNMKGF

On to `CC(C(=O)Nc1cc(-c2[nH]c3ccc(F)nc3c2-c2ccccn2)ccn1)c1ccc(F)cc1` (racemic) [Example 1, 2-(4-fluorophenyl)-N-{4-[5-fluoro-3-(pyridin-2-yl)-1H-pyrrolo[3,2-b]pyridin-2-yl]pyridin-2-yl}propanamide], for which the IC50 in experiment [1] was found to be 1.66 nM; in experiment [2], 16 nM.

With `CC(C(=O)Nc1cc(-c2[nH]c3cccnc3c2-c2ccccn2)ccn1)c1ccc(F)cc1` (racemic) [Example 6, 2-(4-fluorophenyl)-N-{4-[3-(pyridin-2-yl)-1H-pyrrolo[3,2-b]pyridin-2-yl]pyridin-2-yl}propanamide], the IC50 in experiment [1] was found to be 1.73 nM; in experiment [2] it was 8.47 nM.

In the case of `CC(C(=O)Nc1cc(-c2[nH]c3cccnc3c2-c2ccccc2)ccn1)c1ccc(F)cc1` (racemic) [Example 11, 2-(4-fluorophenyl)-N-[4-(3-phenyl-1H-pyrrolo[3,2-b]pyridin-2-yl)pyridin-2-yl]propanamide], the IC50 in experiment [1] was 6.11 nM; in experiment [2], 321 nM.

Take `Cc1cc2[nH]c(-c3ccnc(NC(=O)C(C)c4ccc(F)cc4)c3)c(-c3ccccn3)c2nc1F` (racemic) [Example 28, N-{4-[5-fluoro-6-methyl-3-(pyridin-2-yl)-1H-pyrrolo[3,2-b]pyridin-2-yl]pyridin-2-yl}-2-(4-fluorophenyl)propanamide]: the results for the IC50 in experiment [1] and in experiment [2] were 4.61 nM and 59.1 nM, respectively.

With `COCC(C(=O)Nc1cc(-c2[nH]c3cccnc3c2-c2ccccn2)ccn1)c1ccc(F)cc1` (racemic) [Example 43, (2RS)-2-(4-fluorophenyl)-3-methoxy-N-(4-(3-(pyridin-2-yl)-1H-pyrrolo[3,2-b]pyridin-2-yl)pyridin-2-yl)propanamide], the figures for the IC50 in experiment [1] and in experiment [2] were 3.51 nM and 40.1 nM, respectively.

`COCCC(C(=O)Nc1cc(-c2[nH]c3cccnc3c2-c2ccccn2)ccn1)c1ccc(F)cc1` (racemic) [Example 44]: the values for the IC50 in experiment [1] and in experiment [2] were 4.97 nM and 59.2 nM, respectively.

In the case of `COCC(C(=O)Nc1cc(-c2[nH]c3cc(F)cnc3c2-c2ccccn2)ccn1)c1ccc(F)cc1` (racemic) [Example 45, (2RS)-2-(4-fluorophenyl)-N-[4-[6-fluoro-3-(2-pyridyl)-1H-pyrrolo[3,2-b]pyridin-2-yl]-2-pyridyl]-3-methoxy-propanamide], the IC50 in experiment [1] worked out at 4.83 nM; in experiment [2], 38.8 nM.

For `CC(C(=O)Nc1cc(-c2[nH]c3ccc(F)nc3c2-c2ccccn2)ccn1)c1ccc(F)cc1` (single isomer, unassigned; (+)) [Example 3, (+)-2-(4-fluorophenyl)-N-{4-[5-fluoro-3-(pyridin-2-yl)-1H-pyrrolo[3,2-b]pyridin-2-yl]pyridin-2-yl}propanamide], the IC50 stood at 1 nM in experiment [1] and 12 nM in experiment [2].

As to `CC(C(=O)Nc1cc(-c2[nH]c3cccnc3c2-c2ccccn2)ccn1)c1ccc(F)cc1` (single isomer, unassigned; (+)) [Example 7, (+)-2-(4-fluorophenyl)-N-{4-[3-(pyridin-2-yl)-1H-pyrrolo[3,2-b]pyridin-2-yl]pyridin-2-yl}propanamide], the IC50 in experiment [1] was found to be 0.949 nM; in experiment [2], 4.32 nM.

Take `CC(C)C(C(=O)Nc1cc(-c2[nH]c3ccc(F)nc3c2-c2ccccn2)ccn1)c1ccc(F)cc1` (single isomer, unassigned; (+)) [Example 26, (+)-2-(4-fluorophenyl)-N-{4-[5-fluoro-3-(pyridin-2-yl)-1H-pyrrolo[3,2-b]pyridin-2-yl]pyridin-2-yl}-3-methylbutanamide]: the IC50 in experiment [1] was 3.5 nM; in experiment [2], 48.6 nM.

As for `Cc1cc2[nH]c(-c3ccnc(NC(=O)C(C)c4ccc(F)cc4)c3)c(-c3ccccn3)c2nc1F` (single isomer, unassigned; (+)) [Example 29, (+)-N-{4-[5-fluoro-6-methyl-3-(pyridin-2-yl)-1H-pyrrolo[3,2-b]pyridin-2-yl]pyridin-2-yl}-2-(4-fluorophenyl)propanamide], the IC50 in experiment [1] worked out at 13.8 nM; in experiment [2], 1140 nM.

Regarding `CC(C(=O)Nc1cc(-c2[nH]c3ccc(F)nc3c2-c2ccccn2)ccn1)c1ccc(F)cc1` (single isomer, unassigned; (-)) [Example 2, (−)-2-(4-fluorophenyl)-N-{4-[5-fluoro-3-(pyridin-2-yl)-1H-pyrrolo[3,2-b]pyridin-2-yl]pyridin-2-yl}propanamide], the IC50 in experiment [1] came out at 10.9 nM; in experiment [2] it was 886 nM.

For `CC(C(=O)Nc1cc(-c2[nH]c3cccnc3c2-c2ccccn2)ccn1)c1ccc(F)cc1` (single isomer, unassigned; (-)) [Example 8, (−)-2-(4-fluorophenyl)-N-{4-[3-(pyridin-2-yl)-1H-pyrrolo[3,2-b]pyridin-2-yl]pyridin-2-yl}propanamide], the IC50 stood at 7.53 nM in experiment [1] and 334 nM in experiment [2].

In the case of `CC(C)C(C(=O)Nc1cc(-c2[nH]c3ccc(F)nc3c2-c2ccccn2)ccn1)c1ccc(F)cc1` (single isomer, unassigned; (-)) [Example 25, (−)-2-(4-fluorophenyl)-N-{4-[5-fluoro-3-(pyridin-2-yl)-1H-pyrrolo[3,2-b]pyridin-2-yl]pyridin-2-yl}-3-methylbutanamide], the values for the IC50 in experiment [1] and in experiment [2] were 23.9 nM and 2320 nM, respectively.

In the case of `Cc1cc2[nH]c(-c3ccnc(NC(=O)C(C)c4ccc(F)cc4)c3)c(-c3ccccn3)c2nc1F` (single isomer, unassigned; (-)) [Example 30, (−)-N-{4-[5-fluoro-6-methyl-3-(pyridin-2-yl)-1H-pyrrolo[3,2-b]pyridin-2-yl]pyridin-2-yl}-2-(4-fluorophenyl)propanamide], the values for the IC50 in experiment [1] and in experiment [2] were 1.69 nM and 23.7 nM, respectively.

`O=C(Cc1ccc(F)cc1)Nc1cc(-c2[nH]c3ccc(F)nc3c2-c2ccccn2)ccn1` [Example 4, 2-(4-fluorophenyl)-N-{4-[5-fluoro-3-(pyridin-2-yl)-1H-pyrrolo[3,2-b]pyridin-2-yl]pyridin-2-yl}acetamide]: the IC50 in experiment [1] is 0.739 nM; in experiment [2] it was 5.72 nM.

Regarding `O=C(Cc1ccc(F)cc1)Nc1cc(-c2[nH]c3cccnc3c2-c2ccccn2)ccn1` [Example 5, 2-(4-fluorophenyl)-N-{4-[3-(pyridin-2-yl)-1H-pyrrolo[3,2-b]pyridin-2-yl]pyridin-2-yl}acetamide], the figures for the IC50 in experiment [1] and in experiment [2] were 1.06 nM and 6.1 nM, respectively.

For the compound `O=C(Cc1ccc(F)cc1)Nc1cc(-c2[nH]c3cc(F)cnc3c2-c2ccccn2)ccn1` [Example 9, 2-(4-fluorophenyl)-N-{4-[6-fluoro-3-(pyridin-2-yl)-1H-pyrrolo[3,2-b]pyridin-2-yl]pyridin-2-yl}acetamide], the IC50 in experiment [1] stood at 1.68 nM; in experiment [2], 33.6 nM.
